From patent US7045495B2 (Sloan-Kettering Institute for Cancer Research, priority 1996, dated 2006)
Where two headings read alike, the source gives them in different places.

Legend:
[1] = tested on: MKN-74; assay: cell viability, trypan blue dye exclusion; format: cell-based, human; details: 24 hours, single drug or concomitant; bryostatin 1 μM, Mitomycin-C 1 μg/ml, Taxol 50 μM, Cisplatin 50 μM
Text: Recently our laboratory has studied the effects of combining bryostatin with chemotherapy both in vitro and in vivo against solid tumors. For our in vitro studies, we have been using the human gastric cancer cell line MKN-74. Cytotoxicity has been examined both by cell viability assays using trypan blue dye exclusion assays and by the induction of apoptosis using quantitative fluorescent microscopy.

[2] = tested on: mammary carcinomas; assay: tumor size in mice bearing mammary carcinomas; format: in vivo; details: for increase in tumor size by day #6: bryostatin 60 μg/kg followed in 12 hours by Mitomycin-C 3 μg/kg or Taxol 50 μg/kg, preliminary
[3] = tested on: MKN-74 cells; assay: apoptosis by QFM, Hoechst-33258 staining; format: cell-based, human; details: for Percent Apoptosis: 24 h continuous (single drug) or concomitant, flavopiridol 300 nM, paclitaxel 50 μM, carboplatin; for induction of apoptosis (condensed chromatin, 400 cells): MKN-74, UCN-01 7.5 to 10 μM
Procedure: (§1) Apoptosis was measured by two different methods: (i) Quantitative fluorescent microscopy (QFM) of nuclear changes induced by apoptosis, as determined by bisbenzimide trihydrochloride (Hoescht-33258) staining of nuclear chromatin (15), and (ii) a terminal deoxynucleotidyl transferase (TdT) assay that labels the 3′-OH ends of DNA fragments produced in apoptotic cells (16). […] MMC was diluted in water. A stock safingol solution was constituted in DMSO and was subsequently diluted at least 1:100 in media for all experiments. […] For QFM determinations, the cells were fixed in 3% paraformaldehyde and incubated at room temperature for 10 minutes. The fixative was removed and the cells were washed with 1×PBS, resuspended in 20 μl 1×PBS containing only 8 μg/ml of bisbenzimide trihydrochloride (Hoechst #33258), and incubated at room temperature for 15 minutes. Aliquots of the cells (10 μl) were placed on glass slides coated with 3-amino-propyl-triethoxysilane, and duplicate samples of 500 cells each were counted and scored for the incidence of apoptotic chromatin condensation using an Olympus BH-2 fluorescence microscope equipped with a BH2-DM2U2UV Dich. Mirror Cube filter (Olympus, Lake Success, N.Y.). For the TdT assays, the ApopTag Kit (Oncor, Gaithersburg, Md.) was used. This method employs a fluoresceinated antidigoxigenin antibody directed against nucleotides of digoxigenin-11-dUTP (d-dUTP) which are catalytically added to the 3-ends fragmented DNA by TdT. Briefly, 1–2×10^6 cells were washed and fixed with 1% paraformaldehyde. The fixed cells were incubated in a reaction mixture containing TdT and d-dUTP for 30 minutes at 37° C. Stop/wash buffer was added, and the cells were resuspended in 100 μl of fluorescinated anti-digoxigenin antibody for 30 minutes at room temperature. The cells were then washed with 0.1% Triton X-100 and counterstained with propidium iodide (PI) solution. Green (d-dUTP labeled DNA strand breaks) and red (PI staining for total DNA content) fluorescence of individual cells were measured on a FACScan flow cytometer (Becton Dickinson, San Jose, Calif.). The resulting bivariate plots enabled the detection of apoptotic events within the cell cycle. The R1 cursor was set using the control specimen to define normal levels of green fluorescence (i.e., basal levels of apoptosis). Cells with fluorescence above the R, cursor were considered apoptotic. The data from 10,000 cells were collected and analyzed using CellFit and LYSYS software (Becton Dickinson).
Apoptosis was again measured by QFM staining.
(§2) Induction of apoptosis was estimated by counting the frequency of condensed nuclear chromatin with Hoechst-33258 stain in duplicate samples of 400 cells.
For these studies apoptosis was measured by quantitative fluorescent microscopy (QFM) determination with bisbenzimide trihydrochloride stain (Hoescht-33258) for condensed nuclear chromatin characteristic of apoptotic cells.
For QFM determinations 500 cells were counted and scored for the incidence of apoptotic chromatin changes under an Olympus BH-2 fluorescence microscope in duplicate samples, ±SD, using a BH2-DM2U2UV Dich. Mirror Cube filter.
To study this further applicants elected to examine five bis-indolylmaleimides with various potencies against PKC. […] The induction of apoptosis was estimated by counting the frequency of condensed nuclear chromatin with Hoechst-33258 stain in duplicate samples of 400 cells.

[4] = tested on: PKC; details: cited from earlier work
[5] = tested on: SK-GT-5 cells; assay: apoptosis by quantitative fluorescent microscopy (QFM), Hoechst-33258 staining; format: cell-based, human; details: FIG. 4: safingol 50 μM and/or PMA 1 ng/ml for 1 hour, then MMC 5 μg/ml or no drug 24 hours; MMC alone 24 hours
Procedure: as §1
For the QFM duplicate samples of 500 cells each were counted and scored for the incidence of apoptotic chromatin condensation using an Olympus BH-2 fluorescence microscope.

[6] = tested on: esophageal carcinoma; details: cited from earlier work
[7] = tested on: metastatic breast cancer; details: cited from earlier work
[8] = tested on: SK-GT-2 cells; assay: apoptosis by QFM, Hoechst-33258 staining; format: cell-based, human; details: 24 hours; for percentage of cells undergoing apoptosis (QFM): MMC 5.0 μg/ml
Procedure: (i) Safingol enhances MMC-induced apoptosis: SK-GT-5 cells, which have a mutated p53 gene (9), were treated with safingol in the presence or absence of MMC for 24 hours. For determination of apoptosis SK-GT-5 cells were treated according to one of several conditions: (i) no drug (control) for 24 hours, (ii) Safingol alone (50 μM) for 24 hours. (This concentration represents the highest non-toxic dose of safingol for the SK-GT-5 cells, as determined by cell proliferation studies, and slightly exceeds the safingol concentration (30 μM) which inhibits PKC enzyme activity by 50% in vitro.), (iii) Mitomycin-C alone (2.5 μg/ml) for 24 hours, (iv) Mitomycin-C alone (5 μg/ml) for 24 hours, (v) the combination of safingol (50 μM) and Mitomycin-C (2.5 μg/ml) for 24 hours, (vi) the combination of safingol (50 μM) and Mitomycin-C (5 μg/ml) for 24 hours. Apoptosis was measured by quantitative fluorescent microscopy (QFM) of nuclear changes induced by apoptosis, as determined by bisbenzimide trihydrochloride (Hoescht-33258) staining of condensed nuclear chromatin (3,5). For the QFM duplicate samples of 500 cells each were counted and scored for the incidence of apoptotic chromatin condensation using an Olympus BH-2 fluorescence microscope.
(ii) UCN-01 enhances MMC-induced apoptosis: SK-GT-2 cells, which have a mutation in p53, were treated with increasing concentrations of UCN-01 in the presence or absence of a fixed dose of MMC for 24 hours.
Both UCN-01 and Flavo inhibit PKC. These drugs are cytotoxic to tumor cells and have been reported to induce apoptosis. […] In order to test this hypothesis we elected to treat gastric cancer cells, MKN-74 and SK-GT-2, as well as breast cancer cells, MDA-MB-468, with UCN-01 (7.5 to 10 μM) or Flavo (300 nM) in the presence or absence of MMC (5 μg/ml) or Taxol (50 μM) for 24 hours. Induction of apoptosis was estimated by counting the frequency of condensed nuclear chromatin with Hoechst-33258 stain in duplicate samples of 400 cells.

[9] = tested on: MDA-MB-468 breast cancer cells; assay: apoptosis by QFM, Hoechst-33258 staining; format: cell-based, human; details: 24 hours
Procedure: PRELIMINARY STUDIES. […] Apoptosis was measured by quantitative fluorescent microscopy (QFM) of nuclear changes induced by apoptosis, as determined by bisbenzimide trihydrochloride (Hoescht-33258) staining of condensed nuclear chromatin (24). For the QFM duplicate samples of 500 cells each were counted and scored for the incidence of apoptotic chromatin condensation using an Olympus BH-2 fluorescence microscope.
Applicants also tested the PKC inhibitor UCN-01 (27) which is currently in phase I clinical trial at the NCI. In contrast to safingol, which inhibits PKC by binding to its regulatory domain, UCN-01 inhibits PKC at its catalytic domain. Therefore, assessment of the effect of UCN-01 on inducing apoptosis in combination with MMC on MDA-MB-468 was also performed. The QFM method to quantitate apoptosis was again used. The conditions tested were identical to those described above for safingol except UCN-01 (1 μM) was substituted for safingol in all the conditions.
as §2

With CCC/C=C/C=C/C(=O)O[C@H]1/C(=C/C(=O)OC)C[C@H]2C[C@H]([C@@H](C)O)OC(=O)C[C@H](O)C[C@@H]3C[C@H](OC(C)=O)C(C)(C)[C@](O)(C[C@@H]4C/C(=C/C(=O)OC)C[C@H](/C=C/C(C)(C)[C@]1(O)O2)O4)O3 [bryostatin] the “% of Cells Alive” value [1] was 85%, the “increase in tumor size by day #6” value [2] was 80% and the “tumor energy and pH (NMR)” value ([2]; first noted 12 to 24 hours after bryostatin) was “dose-dependent decrease in tumor energy and pH”.
In the case of CN(C)C[C@H]1CCn2c(c(C3=C(c4cn(C)c5ccccc45)C(=O)NC3=O)c3ccccc32)C1 [RO 32-0432], the “percentage of cells undergoing apoptosis (QFM)” value (“percentage” below) ([3]; 24 hours, RO 32-0432 1 μM, MMC) is reported as “essentially no effect on inducing apoptosis”, the “percent induction of apoptosis, 6hrs” value ([3]; Ro 2 μM, MMC 1 μg/ml) is reported as 0.3% and the “percent induction of apoptosis, 12hrs” value ([3]; Ro 2 μM, MMC 1 μg/ml) is reported as 1.5%. For the same compound, the “percent induction of apoptosis, 24hrs” value ([3]; Ro 2 μM, MMC 1 μg/ml) was 1.2%, the “percent induction of apoptosis, 48hrs” value ([3]; Ro 2 μM, MMC 1 μg/ml) was 5.0% and the “percent induction of apoptosis, 72hrs” value ([3]; Ro 2 μM, MMC 1 μg/ml) was 13%. For the same compound, the IC50 ([4]; Ro32-0432, read-out: IC50, PKC enzyme activity) was […].
In the case of CCCCCCCCCCCCCC(=O)O[C@@H]1[C@@H](C)[C@@]2(O)[C@@H](C=C(CO)C[C@]3(O)C(=O)C(C)=C[C@@H]23)[C@@H]2C(C)(C)[C@]12OC(C)=O [PMA, 3-phorbol 12-myristate 13-acetate], the “percentage” value [5] is reported as “essentially no effect on inducing apoptosis”.
For CC(=O)O[C@H]1C(=O)[C@@]2(C)[C@H]([C@H](OC(=O)c3ccccc3)[C@]3(O)C[C@H](OC(=O)[C@H](O)[C@@H](NC(=O)c4ccccc4)c4ccccc4)C(C)=C1C3(C)C)[C@]1(OC(C)=O)CO[C@@H]1C[C@@H]2O [paclitaxel, Tax-11-en-9-one, 5 beta, 20-epoxy-1, 2 alpha, 4, 7 beta, 10 beta, 13 alpha-hexahydroxy-1,4, 10-diacetate, 2 benzoate 13-(alpha-phenylhippurate)], the “Percent Apoptosis” value ([3]; MMC 1 μg/ml) was 5.5%±1, the “Percent Apoptosis” value ([3]; MMC 1 μg/ml, listed as Paclitaxel) was 6% ± 1% and the “% APOPTOSIS” value ([3]; 24 hours, FLAVO 300 nM, Taxol 50 μM, MMC 1 μg/ml, single drugs or in combination) was 9%. The “percent induction of apoptosis, Concomitant” value ([3]; 24 hours, FLAVO 300 nM, Taxol 50 μM, MMC 1 μg/ml, single drugs or together) was 9% ± 1%, the “induction of apoptosis (condensed chromatin, 400 cells)” value ([3]; 24 hours, Taxol 50 μM) was 2% ± 1 and the “% of Cells Alive” value [1] was 93%. The “increase in tumor size by day #6” value [2] was 22%, the major responses ([6]; 250 mg/m^2 by 24 hour infusion every 21 days with G-CSF, 51 patients) was 32% and the complete response ([6]; 250 mg/m^2 by 24 hour infusion, 51 patients) was 2%. For the same compound, the median survival ([6]; in vivo) was 13 months, the response rate ([7]; 96 hour infusion, taxane resistant population) was 286 and the response rates ([7]; first chemotherapy, 24 hour infusion with or without G-CSF) was 56–62%. The response rate ([7]; first line, 250 mg/m^2 over 3 hour infusion) was 32%.
In the case of CN[C@@H]1C[C@H]2O[C@@](C)([C@@H]1OC)n1c3ccccc3c3c4c(c5c6ccccc6n2c5c31)C(=O)N[C@H]4O [UCN-01, 7-OH-staurosporine], the “induction of apoptosis (condensed chromatin, 400 cells)” value ([3]; 24 hours, Taxol 50 μM) is reported as 10% ± 2, the “percentage” value ([8]; UCN-01 0.1 μM) is reported as 1%±0% and the “percentage” value ([8]; UCN-01 1 μM) is reported as 1%±0. For the same compound, the “percentage” value ([8]; UCN-01 10 μM) was 21%±1%, the “induction of apoptosis (condensed chromatin, 400 cells)” value ([8]; UCN-01 7.5 to 10 μM, MMC 5 μg/ml) was 18% ± 4 and the “induction of apoptosis (QFM)” value ([9]; FIG. 10, UCN-01 1 μM, MMC 5.0 μg/ml) was 20%±4. For the same compound, the “induction of apoptosis (condensed chromatin, 400 cells)” value ([9]; MDA-MB-468, UCN-01 7.5 to 10 μM, MMC 5 μg/ml) was 20% ± 1 and the “concentration range that inhibits PKC activity” value [4] was “nanomolar concentrations”.
In the case of N.N.O=C([O-])C1(C(=O)[O-])CCC1.[Pt+2] [carboplatin], the “Percent Apoptosis” value ([3]; MMC 1 μg/ml) is reported as 1%±1% and the “Percent Apoptosis” value ([3]; MMC 1 μg/ml, listed as Carboplatin) is reported as 1% ± 1%.
